From patent publication US20240400584A1, “COMPOUNDS AND METHODS FOR MODULATING SPLICING” (REMIX THERAPEUTICS INC., priority 2021, published 2024)
pIC50: −log10 of the molar value. Where two headings read alike, the source gives them in different places.

Key:
MYB [1] = assay: RT-qPCR splicing assay, MYB AJ/CJ mRNA; assay type: cell-based; details: Homo sapiens, A673 or K562 cells, 24 hours; for pIC50: decrease in canonical junction mRNA; for AC50: increase in alternative junction mRNA
Method: (§1) Compounds described herein were used to modulate RNA transcript abundance in cells. The expression of a target mRNA was measured by detecting the formation of an exon-exon junction in the canonical transcript (CJ). A compound mediated exon-inclusion event was detected by observing an increase in formation OF A new junction with an alternative exon (AJ). Real-time qPCR assays were used to detect these splicing switches and interrogate the potency of various compounds towards different target Genes. A high-throughput real time quantitative PCR (RT-qPCR) assay was developed to measure these two isoforms of the mRNA (CJ and AJ) for exemplary genes, such as HTT, SMN2, and MYB, together with a control housekeeping gene, GAPDH or GUSB or PPIA, used for normalization. Briefly, the A673 or K562 cell line was treated with various compounds described herein (e.g., compounds of Formula (i)). After treatment, the levels of the HTT, MYB, or SMN2 mRNA targets were determined from each sample of cell lysate by cDNA synthesis followed by qPCR.
(§2) The A673 cell line was cultured in DMEM with 10% FBS. Cells were diluted with full growth media and plated in a 96-well plate (15,000 cells in 100 ul media per well). The plate was incubated at 37° C. with 5% CO2 for 24 hours to allow cells to adhere. An 11-point 3-fold serial dilution of the compounds was made in DMSO then diluted in media in an intermediate plate. Compounds were transferred from the intermediate plate to the cell plate with the top dose at a final concentration of 10 uM in the well. Final DMSO concentration was kept at or below 0.25%. The cell plate was returned to the incubator at 37° C. with 5% CO2 for an additional 24 hours.
(§3) The K562 cell line was cultured in IMDM with 10% FBS. For K562, cells were diluted with full growth media and plated in either a 96-well plate (50,000 cells in 50 uL media per well) or a 384-well plate (8,000-40,000 cells in 45 uL media per well). An 11-point 3-fold serial dilution of the compounds were made in DMSO then diluted in media in an intermediate plate. Compound was transferred from the intermediate plate to the cell plate with the top dose at a final concentration of 10 uM in the well. Final DMSO concentration was kept at or below 0.25%. Final volume was 100 uL for 96-well plate and 50 uL for 384-well plate. The cell plate was then placed in an incubator at 37° C. with 5% CO2 for 24 hours.
(§4) The cells were then gently washed with 50 uL-100 uL Cold Pbs before proceeding to addition of lysis buffer. 30 uL-50 μL of room temperature lysis buffer with DNAse I (and optionally RNAsin) was added to each well. Cells were shaken/mixed thoroughly at room temperature for 5-10 minutes for lysis to take place and then 3 uL-5 μL of room temperature stop solution was added and wells were shaken/mixed again. After 2-5 minutes, the cell lysate plate was transferred to ice for RT-qPCR reaction setup. The lysates could also be frozen at −80° C. for later use.
(§5) In some cases, a direct lysis buffer was used. an appropriate volume of 3× lysis buffer (10 mM tRis, 150 mM NaCl, 1.5%-2.5% Igepal and 0.1-1 U/uL RNAsin, pH 7.4) was directly added to either K562 or A673 cells in media and mixed by pipetting 3 times. The plates were then incubated at room temperature with shaking/rocking for 20-50 minutes to allow for lysis to take place. After this time, the cell lysate plate was transferred to ice to set up for the RT-qPCR reactions. The lysates could also be frozen at −80° C. for later use.
(§6) To set up 10 uL RT-QpcR reactions, cell lysates were transferred to 384-well qPCR plates containing the master mix according to the table below. The plates were sealed, gently vortexed, and spun down before the run. The volumes were adjusted accordingly in some instances where the reaction was carried in 20 µL. The table below summarizes the components of the RT-qPCR reactions:
(§7) The RT-qPCR reaction was performed using a QuantStudio (ThermoFisher) under the following fast cycling conditions. […]

HTT [2] = assay: Gene panel canonical junction qPCR assay, HTT CJ mRNA (Table 7); assay type: cell-based, human; details: read-out: HTT CJ mRNA decrease IC50
Method: as §1
(§8) The data analysis was performed by first determining the ΔCt vs the housekeeper gene. This ΔCt was then normalized against the DMSO control (ΔΔCt) and converted to RQ (relative quantification) using the 2^(−ΔΔCt) equation. The RQ were then converted to a percentage response by arbitrarily setting an assay window of 3.5 and 4.0 ΔCt for HTT-CJ and MYB-CJ respectively and an assay window of 9 and 3 ΔCt for HTT-AJ and MYB-AJ in 96 well format (50,000 K562 cells/well and 15,000 A673 cells per well) and an assay window of 3 and 4 ΔCt for HTT-CJ and MYB-CJ respectively and an assay window of 5 and 3 ΔCt for HTT-AJ and MYB-AJ respectively in 384 well format (8,000 K562 cells/well example). […] The percentage response was then fitted to the 4 parametric logistic equation to evaluate the concentration dependence of compound treatment. The increase in AJ mRNA is reported as AC50 (compound concentration having 50% response in AJ increase) while the decrease in CJ mRNA levels is reported as IC50 (compound concentration having 50% response in CJ decrease).
(§9) Additional studies were carried out for a larger panel of genes using the protocol provided above. The junction between flanking upstream and downstream exons was used to design canonical junction qPCR assays. At least one of the forward primer, reverse primer or the CY5-labeled 5′ nuclease probe (with 3′ quencher such as ZEN/Iowa Black FQ) was designed to overlap with the exon junction to capture the CJ mRNA transcript. BLAST was used to confirm the specificity of the probeset and parameters such as melting temperature, GC content, amplicon size, and primer dimer formation are considered during their design. Data for the decrease in CJ mRNA levels for four exemplary genes (HTT, SMN2, MYB, and Target C) analyzed in this panel are reported as IC50 (compound concentration having 50% response in CJ decrease).

HTT [3] = assay: RT-qPCR splicing assay, HTT AJ/CJ mRNA; assay type: cell-based, human; details: A673 or K562 cells; for pIC50: decrease in canonical junction mRNA; for AC50: increase in alternative junction mRNA
Method: as §1, §2, §3, §4, §5, §6, §7

MYB [4] = assay: Gene panel canonical junction qPCR assay, MYB CJ mRNA (Table 7); assay type: cell-based; details: Homo sapiens, read-out: MYB CJ mRNA decrease IC50
Method: as §1, §8, §9

SMN2 = assay: Gene panel canonical junction qPCR assay, SMN2 CJ mRNA (Table 7); assay type: cell-based; details: Homo sapiens, read-out: SMN2 CJ mRNA decrease IC50
Method: as §1, §8, §9

Target C = assay: Gene panel canonical junction qPCR assay, Target C CJ mRNA (Table 7); assay type: cell-based, human; details: read-out: Target C CJ mRNA decrease IC50
Method: as §1, §8, §9

Row | SMILES | pIC50 (MYB [1]) | AC50 (MYB [1]) [µM] | pIC50 (HTT [2]; Homo sapiens) | pIC50 (HTT [3]; Homo sapiens, 24 h) | AC50 (HTT [3]; Homo sapiens, 24 h) [µM] | pIC50 (MYB [4]) | pIC50 (SMN2) | pIC50 (Target C; Homo sapiens) | pIC50 (HTT [3]; 24 hours) | AC50 (HTT [3]; 24 hours) [µM] | pIC50 (HTT [2]) | pIC50 (Target C)
1 | Cc1cc(-c2ccc3c(c2)COc2nc(N4CC[C@H](NC(C)(C)C)C4)ccc2-3)cnn1 (single isomer, unassigned) [Compound 273, N-tert-butyl-1-[8-(6-methylpyridazin-4-yl)-6H-isochromeno[3,4-b]379yrrolid-3-yl]379yrrolidine-3-amine] | < 5.00 | > 10 | < 5.00 | < 5.00 | > 10 | < 5.00 | < 5.00 | < 5.00 |  |  |  | 
2 | Cc1cc(-c2ccc3c(c2)COc2nc(N4CC[C@@H](NC(C)(C)C)C4)ccc2-3)cnn1 (single isomer, unassigned) [Compound 274, N-tert-butyl-1-[8-(6-methylpyridazin-4-yl)-6H-isochromeno[3,4-b]379yrrolid-3-yl]379yrrolidine-3-amine] | < 5.00 | > 10 | 5.00 to 6.00 | 5.00 to 6.00 | > 10 | < 5.00 | 6.00 to 7.00 | < 5.00 |  |  |  | 
3 | CN(c1ccc2c(n1)COc1cc(-n3cccn3)ccc1-2)[C@@H]1C[C@H]2CC[C@@H](C1)N2 [Compound 109] |  |  |  |  |  |  |  |  | 6.00 to 7.00 | 0.1 to 1 |  | 
4 | CN(c1ccc2c(c1)CCOc1cc(-c3cn[nH]c3)ccc1-2)[C@@H]1C[C@H]2CC[C@@H](C1)N2 [Compound 112] |  |  |  |  |  |  |  | < 5.00 |  |  |  | 
5 | CN(c1ccc2c(n1)CCOc1cc(-c3cn[nH]c3)ccc1-2)C1CC(C)(C)NC(C)(C)C1 [Compound 114] |  |  | 6.00 to 7.00 | 6.00 to 7.00 | < 0.1 |  |  | > 7.00 |  |  |  | 
6 | CN(c1ccc2c(n1)CCOc1cc(-c3cn[nH]c3)ccc1-2)[C@@H]1C[C@H]2CC[C@@H](C1)N2 [Compound 127] | < 5.00 | > 10 | < 5.00 | < 5.00 | > 10 | < 5.00 | < 5.00 |  |  |  |  | 
7 | CN(c1ccc2c(n1)CCOc1cc(-n3cccn3)ccc1-2)[C@@H]1C[C@H]2CC[C@@H](C1)N2 [Compound 128] |  |  | < 5.00 | < 5.00 | > 10 |  |  | < 5.00 |  |  |  | 
8 | c1cc2c(cc1N[C@@H]1C[C@H]3CC[C@@H](C1)N3)CCOc1cc(-c3cn[nH]c3)ccc1-2 [Compound 132] |  |  | < 5.00 | < 5.00 | > 10 |  |  | < 5.00 |  |  |  | 
9 | c1cnn(-c2ccc3c(c2)OCc2nc(N[C@@H]4C[C@H]5CC[C@@H](C4)N5)ccc2-3)c1 [Compound 135] | 5.00 to 6.00 | > 10 |  |  |  | 5.00 to 6.00 | 5.00 to 6.00 |  | 5.00 to 6.00 | 1 to 10 | 5.00 to 6.00 | 5.00 to 6.00
10 | c1cnn(-c2ccc3c(c2)OCCc2nc(N[C@@H]4C[C@H]5CC[C@@H](C4)N5)ccc2-3)c1 [Compound 136] | < 5.00 | > 10 | < 5.00 | < 5.00 | > 10 | < 5.00 | < 5.00 | < 5.00 |  |  |  | 
11 | CN(c1cnc2c(n1)OCc1cc(-c3cn[nH]c3)ccc1-2)C1CC(C)(C)NC(C)(C)C1 [Compound 138] |  |  |  |  |  |  |  | 5.00 to 6.00 | 5.00 to 6.00 | 1 to 10 | 5.00 to 6.00 | 
12 | c1cc2c(cc1-c1cn[nH]c1)OCCc1nc(N[C@@H]3C[C@H]4CC[C@@H](C3)N4)ccc1-2 [Compound 140] | < 5.00 | > 10 | < 5.00 | < 5.00 | > 10 | < 5.00 | < 5.00 |  |  |  |  | 
13 | CN(c1ccc2c(n1)OCc1cc(-n3cccn3)ccc1-2)[C@H]1[C@@H]2CNC[C@@H]21 [Compound 194] |  |  | < 5.00 | 5.00 to 6.00 | 1 to 10 |  | < 5.00 | < 5.00 |  |  |  | 
14 | CCN(c1ccc2c(n1)OCc1cc(-n3cccn3)ccc1-2)[C@@H]1C[C@H]2CCC[C@@H](C1)N2 [Compound 195] | 5.00 to 6.00 | > 10 | 6.00 to 7.00 |  |  | 5.00 to 6.00 | 6.00 to 7.00 | 5.00 to 6.00 |  |  |  | 
15 | c1cnn(-c2ccc3c(c2)COc2nc(N(C4CC4)[C@@H]4C[C@H]5CCC[C@@H](C4)N5)ccc2-3)c1 [Compound 203] |  |  |  | 5.00 to 6.00 | 1 to 10 |  |  |  |  |  |  | 
16 | c1cnn(-c2ccc3c(c2)COc2nc(N(C4CC4)[C@@H]4C[C@H]5CC[C@@H](C4)N5)ccc2-3)c1 [Compound 205] |  |  |  | 5.00 to 6.00 | 0.1 to 1 |  |  |  |  |  |  | 
17 | Cc1cc(-c2ccc3c(c2)COc2nc(O[C@@H]4C[C@H]5C[C@@H](C4)N5)ccc2-3)ccn1 [Compound 209] | 6.00 to 7.00 | 1 to 10 | 6.00 to 7.00 |  |  | 6.00 to 7.00 | 6.00 to 7.00 | 5.00 to 6.00 |  |  |  | 
18 | c1cc2c(cc1-c1cn[nH]c1)COc1nc(N3CCC34CCCNC4)ccc1-2 (stereo not drawn) [Compound 210] | < 5.00 |  |  | < 5.00 |  |  |  |  |  |  |  | 
19 | c1cc2c(cc1-c1cn[nH]c1)COc1nc(N3CCC(NC4CC4)C3)ccc1-2 (stereo not drawn) [Compound 211] | 6.00 to 7.00 |  |  | > 7.00 |  |  |  |  |  |  |  | 
20 | CC(C)(C)NC1CCN(c2ccc3c(n2)OCc2cc(-c4cn[nH]c4)ccc2-3)C1 (stereo not drawn) [Compound 212] | 6.00 to 7.00 |  |  | > 7.00 |  |  |  |  |  |  |  | 
21 | CC(C)(C)NC1CCN(c2ccc3c(n2)OCc2cc(-n4cccn4)ccc2-3)C1 (stereo not drawn) [Compound 213] | 5.00 to 6.00 |  |  | 6.00 to 7.00 |  |  |  |  |  |  |  | 
22 | c1cnn(-c2ccc3c(c2)COc2nc(N4CCC(NC5CC5)C4)ccc2-3)c1 (stereo not drawn) [Compound 214] | < 5.00 |  |  | < 5.00 |  |  |  |  |  |  |  | 
